Test results reported in US8889724B2, “Tetrazole compounds for reducing uric acid” (Wellstat Therapeutics Corporation, priority 2008, dated 2014).
Several values for one entry are separate records, joined by “and”; a condition that tells them apart may be missing. Equal values may be shown once.

Columns and labels:
[1] = molecular target: human URAT1 (Homo sapiens (Human), UniProt Q96S37); assay: URAT1 inhibition assay: [8-14C] urate uptake in hURAT1-HEK cells; type: cell-based
Method: URAT1 (Uric Acid Transporter 1) is expressed on the apical membrane in renal tubules. It mediates the re-uptake of uric acid from the urine into the blood.
A suitable assay involves transfection of cells (e g human embryonic kidney cells; “HEK”) with a vector encoding human URAT1, followed by determination of the ability of transfected cells to take up radiolabeled uric acid. The activity of compounds as URAT1 inhibitors is evaluated by their ability to block uric acid uptake by transfected cells.
Test Compounds and Chemicals:
Urate (50-60 mCi/mmol; American Radio Chemicals, Cat. No. ARC0513).
Subcloning of hURAT1 into the Expression Vector:
Plasmid vector pCMV6-XL5 containing hURAT1 cDNA (Cat. No. SC125624) and the expression vector pCMV6-Neo (Cat. No. pCMVNEO) were obtained from OriGene Technologies, Inc. The full-length hURAT1 cDNA was obtained from the vector pCMV6-XL5 and subcloned into the expression vector pCMV6-Neo to create the hURAT1 expression plasmid pCMV6-hURAT1. The sequences were verified by automatic DNA sequencing.
Cell Culture, Transfection of URAT1 Expressing Plasmids and the Establishment of Stably Expressing HEK Cells for hURAT1:
For transfection experiments, cells were plated on 60 mm dishes in 1 ml media per dish. […] Stable transfectants expressing hURAT1 (herein after referred as hURAT1-HEK cells) or cells having only the expression vector pCMV6-Neo (herein after referred as mock-HEK cells) were verified using reverse transcription polymerase chain reaction (RT-PCR) methods.
[8-^14C] Urate Uptake Assay:
Before the uptake assay started, the culture medium was removed and the cells were incubated for 5 min in 0.6 ml of HBSS. After that HBSS was removed, the prepared reaction solutions were added into each well and incubated for 5 min at room temperature. Then the reaction solution was removed, cells were washed twice with 0.6 ml of cold HBSS and lysed with 0.2 ml of 0.1 M NaOH for 20 min. […] Test compounds were dissolved in DMSO and the same concentration of DMSO was added into the wells of mock-HEK cells and the hURAT1-HEK cells that didn't contain test compounds. For each test compound, the uptake assay was performed 2 times and carried out in triplicate. Urate uptake of the cells for each test condition was presented as the average percent inhibition in comparison to the DMSO control. The radioactivity values obtained for the wells that contained DMSO were taken as 100% uptake of the cells. The observed concentration-percent inhibition data were fitted to a sigmoidal concentration-effect model, where: % Inhibition=(100*Conc^Slope)/(IC50^Slope+Conc^Slope)
In this example the compounds were not necessarily tested simultaneously.

[2] = Rat pilot single-dose oral pharmacokinetic study with Compound EB; type: in vivo; conditions: 100 mg/kg single oral gavage; for Compound EB concentration in plasma, individual rats: male Sprague-Dawley rat
Method: Rat Pilot Single-Dose Oral Pharmacokinetic Study with Compound EB
Determination of the plasma profile of Compound EB following single oral gavage administration to male rats.
Test compound was suspended in 1% HPMC using a tissue homogenizer to minimize particles and maximize uniformity of the suspension and stored at 4° C. The formulations was thoroughly mixed just prior to administration. A dose of 100 mg/kg of test compounds or vehicle (1% HPMC) was administered to male Sprague-Dawley rats by single oral gavage. […] The blood samples were centrifuged within 30 minutes of collection under refrigeration (2-8° C.) for 7 minutes at 6000 rpm. Following centrifugation, the plasma were harvested into a single tube for each animal at each time point and immediately frozen at −80° C. until analyzed using LC/MS-MS. Serial plasma concentration time data was subjected to pharmacokinetic analyses using WinNonlin Standard (v2.1, Pharsight Corporation) and Microsoft EXCEL.
1. Rats received single oral gavage of Compound EB, 100 mg/kg, and plasma was collected at certain times.
2. Plasma was stored at −80° C. until the day of analysis.
3. Samples were thawed on 37° C. bath for 5 min and vortexed at top speed for 10 sec.
4. Rat plasma, 0.1 mL was mixed with 0.2 mL Acetonitrile, vortexed 1 min, spun down 14000 rpm, 17000 g, at 4° C., for 25 min.
(§1) 5. Supernatants were filtered through 0.45 micron, 4 mm, PTFE membrane syringe filter (Phenomenex # AF0-3102-52), and 13 microL were injected and resolved on Luna 3 micron, 100 A pore, C8(2), 150×3 mm, reverse phase column (Phenomenex#00F-4248-YO, SN#259151-7) in 50 min linear gradient from 40% to 69% of (0.1% Formic Acid, 89.9% Acetonitrile, 10% Methanol) at 0.25 mL/min, 100 bar, 37° C. column temperature, method 406975M1, AGILENT sequence 1015-08A, Agilent 1100 LC-MS.
All samples were run in duplicate, 210 nm and 230 nm Absorbances, Negative and Positive ionization spectrograms were recorded.
Step 1. Plasma from “Vehicle” animals (pooled), 0.19 mL, was mixed with 0.01 mL 20× stock of PN2107 in Methanol to make 500 microM, 250 microM, 125 microM, . . . , concentrations of Compound EB in plasma.
For example: 190 microL plasma+10 microL of 10 mM Compound EB in methanol=0.2 mL plasma with 500 microM Compound EB.
Step 2. Samples from step 1 were vortexed for 10 sec at top speed.
Step 3. 0.4 mL of acetonitrile was added to all samples from Step 2, and all vials were vortexed at top speed for 1 min.
Step 4. All samples from step 3 were spun down 14000 rpm, 17000 g, at 4° C., for 25 min.
as §1, with “Step 5.” for “5.”, “AF0-3102-52),” for “AF0-3102-52), and”, “ml/min,” for “mL/min,”, “temperature.” for “temperature, method 406975M1, AGILENT sequence 1015-08A, Agilent 1100 LC-MS.”

human URAT1, sequence (Q96S37 whole entry): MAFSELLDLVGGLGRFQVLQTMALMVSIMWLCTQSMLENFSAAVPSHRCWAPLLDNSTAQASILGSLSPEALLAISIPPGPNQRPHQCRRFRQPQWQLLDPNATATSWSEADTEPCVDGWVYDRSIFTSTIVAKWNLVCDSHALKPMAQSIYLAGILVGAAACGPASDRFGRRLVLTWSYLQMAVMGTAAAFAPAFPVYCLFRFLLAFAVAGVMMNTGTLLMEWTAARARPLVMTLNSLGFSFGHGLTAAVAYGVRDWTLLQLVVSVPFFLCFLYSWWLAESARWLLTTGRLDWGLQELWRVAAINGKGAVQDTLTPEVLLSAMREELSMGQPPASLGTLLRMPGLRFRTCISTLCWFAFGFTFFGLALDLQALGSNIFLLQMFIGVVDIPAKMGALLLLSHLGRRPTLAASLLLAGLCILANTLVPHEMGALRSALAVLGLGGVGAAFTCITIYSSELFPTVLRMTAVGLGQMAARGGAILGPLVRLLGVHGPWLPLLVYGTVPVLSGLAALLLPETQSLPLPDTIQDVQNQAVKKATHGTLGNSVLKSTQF

inhibition at 10 µM ([1]; 10 μM, hURAT1-HEK cells): 90%
IC50 ([1]; 14C urate uptake in hURAT1-HEK cells): 930 nM
Detection in rat plasma (in words) ([2]; LC-MS): readily detected
Cmax ([2]; Sprague-Dawley, rat, male rats, plasma): 108 µg/mL
AUC(0-t) ([2]; Sprague-Dawley, rat, male rats, plasma, read-out: AUC 0-24): 566 µg·h/mL
half-life ([2]; Sprague-Dawley, rat, male rats, plasma, read-out: T ½): 3.99 h
Compound EB concentration in plasma, individual rats ([2]; 1 HR): 386 µM and 103 µM
Compound EB concentration in plasma, individual rats ([2]; 2 HR): 75 µM and 206 µM
Compound EB concentration in plasma, individual rats ([2]; 4 HR): 24 µM and 112 µM
Compound EB concentration in plasma, individual rats ([2]; 6 HR): 26 µM and 92 µM
Compound EB concentration in plasma, individual rats ([2]; 8 HR): 72 µM and 202 µM
Compound EB concentration in plasma, individual rats ([2]; 24 HR): 0 µM and 17 µM
Compound EB concentration in plasma, individual rats ([2]; 15 min): 184 µM and 159 µM
Compound EB concentration in plasma, individual rats ([2]; 30 min): 37 µM and 125 µM
concentration at 0 h ([2]; male, Sprague-Dawley, rat plasma, time 0, read-out: Compound EB concentrations, averages): 0 nM and 0 ng/mL
concentration at 0.25 h ([2]; male, Sprague-Dawley, rat plasma, time 0.25, read-out: Compound EB concentrations, averages): 172 µM and 48000 ng/mL
concentration at 0.5 h ([2]; male, Sprague-Dawley, rat plasma, time 0.5, read-out: Compound EB concentrations, averages): 81 µM and 22700 ng/mL
concentration at 1 h ([2]; male, Sprague-Dawley, rat plasma, time 1, read-out: Compound EB concentrations, averages): 244 µM and 68500 ng/mL
concentration at 2 h ([2]; male, Sprague-Dawley, rat plasma, time 2, read-out: Compound EB concentrations, averages): 140 µM and 39300 ng/mL
concentration at 4 h ([2]; male, Sprague-Dawley, rat plasma, time 4, read-out: Compound EB concentrations, averages): 68 µM and 19000 ng/mL
concentration at 6 h ([2]; male, Sprague-Dawley, rat plasma, time 6, read-out: Compound EB concentrations, averages): 59 µM and 16500 ng/mL
concentration at 8 h ([2]; male, Sprague-Dawley, rat plasma, time 8, read-out: Compound EB concentrations, averages): 137 µM and 38400 ng/mL
concentration at 24 h ([2]; male, Sprague-Dawley, rat plasma, time 24, read-out: Compound EB concentrations, averages): 8.5 µM and 2380 ng/mL
SMILES: Cc1cccc(C)c1COc1cccc(-c2nnn[nH]2)c1 [Compound EB, 5-(3-(2,6-Dimethylbenzyloxy)phenyl)-1H-tetrazole]
